Here are results for 132 compounds from the pKa sets of Baltruschat and Czodrowski (2020).

Take `CN(C)c1ccc(O)cc1`: the pKa (acidic group) is 10.2.

Where the note is “acidic group”, `CCCCc1c(-c2ccccc2)nn(-c2ccccc2)c1O` returned a pKa of 7.2. As for `CC(=O)N1CCNc2ncnc(C)c21`, the pKa (basic group) turned out to be 5.26.

`CN(C)N`: under “basic group”, the pKa came to 7.16. Take `COO`: the pKa (acidic group) came to 11.5.

For `COc1cc(OC)nc(NS(=O)(=O)c2ccc(N)cc2)n1`, the pKa (acidic group) was determined as 7.12. On to `Cc1cc(C)ncn1`, for which the pKa (basic group) is 2.7. On the same count and under the same terms, the value for `c1ccc(CSc2ccncc2)cc1` was 5.41; that for `c1ccc(Nc2ncnc3[nH]ncc23)cc1` was 3.92; that for `[NH3+][C@@H](Cc1c[nH]cn1)C(=O)N[C@@H](Cc1c[nH]cn1)C(=O)[O-]` was 6.8. On to `S=C(Nc1ccccc1)c1ccccc1`, for which the pKa (acidic group) turned out to be 10.9.

In turn, `Cc1[nH+]c2cccc(N)c2n1C` showed a pKa (basic group) of 2.35. Regarding `CCCCCOc1ccc(C(=O)O)cc1`, for the setting “acidic group”, the pKa came to 4.49. On to `c1ncc2cn[nH]c2n1`, for which the pKa is, setting by setting: (acidic group) 9.54; (basic group) 2.84. `CC(c1cccc([N+](=O)[O-])c1)[N+](=O)[O-]` (stereo unspecified) displayed a pKa (acidic group) of 6.67. For the setting “basic group”, `CC(=O)c1ccccc1N` had a pKa of 2.31.

Consider `CN(C)C(=O)OCC(=O)O`, for which the pKa (acidic group) worked out at 3.01. Still for that read-out and setting: the value for `NC(=O)c1c(CC(=O)O)n[nH]c1N` was 3.5. Under “basic group”, `CC(=O)c1ccc(/N=N/c2c(N)n[nH]c2N)cc1` gave a pKa of 3.32. The compound `CCNC(=S)OC(C)C` gave a pKa (acidic group) of 11.5.

`NCCC[NH2+]CCO` displayed a pKa (basic group) of 8.19. Still for that read-out and setting: to `C=CCNCCCCCCCCCCC(=O)[O-]` belongs 9.3. Under “acidic group”, `c1ccc(-c2cn[nH]c2)cc1` displayed a pKa of 13.6.

As for `N#C/C(=C(\[O-])O)c1ccccc1`, the pKa (acidic group) is 8.7. On the same count and under the same terms, the value for `CCN(CC)S(=O)(=O)c1ccccc1C(=O)O` was 2.96.

On to `Cn1c(-c2ccccn2)[nH+]c2ccccc21`, for which, where the note is “basic group”, the pKa is -1.27.

The compound `O=C(O)c1ccc(I)cc1` registered a pKa (acidic group) of 3.99.

With `N=C(N)Nc1nc(N)nc(NC(N)=[NH2+])n1`, where the note is “basic group”, the pKa is 7. The same measure, in the same setting: the value for `Cn1c([O-])[nH+]c2cnc([O-])nc21` was 8.74; that for `Cc1ccccn1` was 5.98; that for `Cc1ccnc(NS(=O)(=O)c2ccccc2)n1` was 0.59.

Take `ClC1CC2CCN1CC2` (stereo unspecified): under “basic group”, the pKa is 6.98. Regarding `Cc1ccc([N+](=O)[O-])cc1C(=O)O`, the pKa (acidic group) is 3.17. Same read-out and setting: the value for `CC(C)NC(=S)S` was 3.1.

Consider `Nc1cccc(-c2nc3ccccc3s2)c1`, for which, where the note is “basic group”, the pKa is 3.4.

`O=C1O[C@@H]([C@H](O)[C@@H](O)[C@@H](O)CO)C([O-])=C1O` came in with a pKa (acidic group) of 12. As for `CCc1cc(Cl)n(C)c2nc3ccccc3c1-2`, the pKa (basic group) amounted to 7.46.

As for `Cc1cc([S-])[nH+]cn1`, for the setting “basic group”, the pKa came out at 1.8. Same read-out and setting: the value for `Cc1cc(C)nc(NS(=O)(=O)c2ccc([NH3+])cc2)n1` was -0.89. For the compound `O=C1O[C@@H]([C@@H](O)CO)C(O)=C1O`, the pKa (acidic group) was 4.16.

Regarding `O[C@H]1[C@H](O)[C@@H](n2cnc3ccccc32)OC[C@@H]1O`, the pKa (basic group) came to 3.92. Under “acidic group”, `Cc1cc(N(C)C)cc[n+]1O` returned a pKa of 4.37. The compound `CSc1ccc(N)c(Cl)c1` displayed a pKa (basic group) of 2.56.

Compound `C[C@]12C[C@H](C(=O)O)OC(=O)[C@H]1CC[C@@]1(C)[C@@H]2[C@H]2CCC1(O)C(=O)O2` had a pKa (acidic group) of 3.5.

`C=C(C)/C(C)=C(\C)O`: the pKa (acidic group) was found to be 12.

`Cc1ccccc1C(=NCCC[NH+](C)C)c1ccccc1C` had a pKa (basic group) of 4.3. On the same count and under the same terms, to `c1ccc2c(c1)C1CCN2c2ccccc21` belongs 4.54; to `C=Cc1c(C)c2cc3[nH+]c(c(CC(=O)OC)c4[nH]c(cc5nc(cc1[nH]2)C(C)=C5CC)c(C)c4C(=O)NCC)[C@@H](CCC(=O)OC)[C@@H]3C`, 0. Take `Oc1ccccc1-c1nnn[nH]1`: where the note is “acidic group”, the pKa worked out at 4.36. As to `CC(C)N(CC1CO1)CC1CO1` (stereo unspecified), the pKa (basic group) was 7.07. Still for that read-out and setting: to `NCCCCCCC(=O)[O-]` belongs 10.9.

`Cc1c(O)cncc1C1CCCCC1` returned a pKa (acidic group) of 10 and a pKa (basic group) of 5.6. In turn, `CC1(C(=O)O)CCC=[N+]1[O-]` (stereo unspecified) registered a pKa (acidic group) of 2.95. `c1ccc2c(c1)CCN2` registered a pKa (basic group) of 5.49.

As for `O=C([O-])[C@H](NCC[NH2+][C@@H](C(=O)[O-])c1ccccc1O)c1ccccc1O`, the pKa (acidic group) was 8.79 and the pKa (basic group) was 6.33. With `CC(C)/C=C/C(=O)O`, the pKa (acidic group) turned out to be 4.7. Still for that read-out and setting: to `COCc1ccccc1C(=O)O` belongs 3.85; to `N#CC(C#N)=C(C#N)Nc1cccc([N+](=O)[O-])c1`, 3.45.

The compound `Cc1ncc(CO)c(C)c1OCc1ccccc1` had a pKa (basic group) of 5.52. Consider `COCCNc1cccc(C)c1`, for which the pKa (basic group) was found to be 4.29. On to `CNc1nc(C)nc2[nH]ncc12`, for which the pKa is 11.3 (acidic group) and 5.56 (basic group). Where the note is “basic group”, `COc1ccc2nccc(C(O)C3CCCCN3)c2c1` (stereo unspecified) gave a pKa of 9.3.

Where the note is “basic group”, `CC[NH+](CCO)c1ccc(N)cc1` showed a pKa of 3.04. The compound `CC1(C)CC(=O)CC1=O` gave a pKa (acidic group) of 4.2. Compound `NCCCCCCO` had a pKa (basic group) of 10.6.

`CC(N)CC1CCCCC1` (stereo unspecified) had a pKa (basic group) of 10.1. Still for that read-out and setting: the value for `Nc1cccc2ccc([N+](=O)[O-])cc12` was 2.83.

Compound `Cc1ncsc1C(=O)O` gave a pKa (acidic group) of 3.54. The same measure, in the same setting: to `O=C(CC(=O)c1ccccc1)Nc1ccccc1` belongs 9.54. Consider `c1nc(Cc2c[nH]c(Cc3nc(Cc4cnc[nH]4)c[nH]3)[nH+]2)c[nH]1`, for which the pKa (basic group) came out at 6.66. In the case of `O=C([O-])c1cccc(O)c1`, for the setting “acidic group”, the pKa was 9.81. For `N#CC(C#N)=NNc1ccc(OC(F)(F)F)cc1`, the pKa is 6 (acidic group) and -0.78 (basic group). The compound `CCCCN(CC(C)O)CC(C)O` (stereo unspecified) displayed a pKa (basic group) of 9.3. Take `O=C(c1ccccc1)c1ccc(O)c(O)c1`: the pKa (acidic group) was 7.74. On to `Nc1ccc2cccnc2c1`, for which the pKa (basic group) turned out to be 6.65. Same read-out and setting: the value for `O=C(CCCN1CCOCC1)c1ccccc1` was 7.26. Consider `Cc1ccc(Br)c(C(=O)O)c1`, for which, under “acidic group”, the pKa stood at 3. The compound `O=C1COC(=O)C1` displayed a pKa (acidic group) of 3.76. Where the note is “basic group”, `CON` came in with a pKa of 4.62.

For `CC(C)=CCC1=C(O)[C@](O)(CC=C(C)C)C(=O)C(C(=O)CC(C)C)=C1O`, the pKa (acidic group) is 4.22. On to `CN[C@H]1C[C@@H]1NC`, for which the pKa (basic group) was 8.73. In turn, `N#CC(C#N)=C(C#N)Nc1ccc(C(=O)O)cc1` had a pKa (acidic group) of 4.2. In turn, `Cc1cc(-c2ncc[nH]2)nn1C` registered a pKa (basic group) of 6.2. On the same count and under the same terms, to `C1CC2CCCN2C1` belongs 11.7; to `C[C@@H]1CCC[C@H](N(C)C)C1`, 10.5. Same read-out and setting: to `O=C(Nc1ccncc1)c1ccccc1` belongs 5.32. Regarding `CC1(C)CC(=O)C(Br)C(=O)C1`, the pKa (acidic group) stood at 3.1.

Under “acidic group”, `O=C(/C(=N\O)c1ccccc1)c1ccccc1` came in with a pKa of 10. Same read-out and setting: the value for `O=C(O)c1cc(-c2ccccc2)oc(=O)c1` was 3.3. For the setting “basic group”, `COC(=O)[C@@H](N)Cc1c[nH]cn1` came in with a pKa of 7.33. As to `O=C(O)c1csc(Cl)c1`, the pKa (acidic group) stood at 3.8.

Regarding `CN(C)/C=N/c1cccc(O)c1`, the pKa came to 10.2 (acidic group) and 7.88 (basic group).

For `CC(C)(C)OOCC(=O)O`, the pKa (acidic group) came out at 3.49. Turning to `CC(=O)N(C)c1ccncc1`, the pKa (basic group) is 4.62.

For the compound `Oc1ccc(O)c2ncccc12`, the pKa runs as follows: (acidic group) 9.3; (basic group) 4.5. The like results for `Nc1ccc(O)cc1` were, in that order, 10.1 and 5.54. For `C=C(C)[C@H]1CN[C@H](C(=O)[O-])[C@H]1CC(N)=O`, the pKa (basic group) is 9.47. As for `C[C@H]1CCCC[C@@H]1N`, the pKa (basic group) was found to be 10.6. `C[N+](C)(C)CC(O)CC(=O)O` (stereo unspecified) came in with a pKa (acidic group) of 3.8. The compound `COC(=O)C1CN2CCC1CC2` (stereo unspecified) gave a pKa (basic group) of 9.4. The same measure, in the same setting: the value for `c1cnc2c(c1)CCCC2` was 6.6. With `CCC(=O)NOC(=O)/C=C/c1ccccc1`, the pKa (acidic group) amounted to 6.8. Under “basic group”, `Cc1ccc(C2CN2)cc1` (stereo unspecified) registered a pKa of 6.76. For `CCOC(=O)C(Cc1ccc([N+](=O)[O-])cc1)C(C)=O` (stereo unspecified), the pKa (acidic group) was 11.1. For `Sc1nc2[nH]cnc2c[nH+]1`, the pKa (acidic group) amounted to 0.5. Still for that read-out and setting: to `O=C(O)CCc1ccoc1` belongs 4.44. As for `Cn1c(CO)nc2ccccc21`, the pKa stood at 15.8 (acidic group) and 4.36 (basic group). In the case of `O=C(O)[C@@H]1O[C@H](Oc2cccc3ccc[nH+]c23)[C@@H](O)[C@H](O)[C@H]1O`, the pKa (acidic group) came to 3.01. Still for that read-out and setting: the value for `Cc1ccc([N+](=O)[O-])c(C(=O)O)c1` was 2.55; that for `Cc1ccc(O)cc1Cc1cc([N+](=O)[O-])ccc1O` was 7.03. The compound `C1CCN(CCCN2CCCC2)C1` had a pKa (basic group) of 10. Take `Cc1c(N)ccc2c1-c1c(ccc3ccccc13)C2`: the pKa (basic group) came out at 4.49. In the case of `Cc1ccc(I)cc1C(=O)O`, under “acidic group”, the pKa is 3.62. The compound `COc1c(Br)cccc1C(=O)N[C@@H]1C[C@H]2CC[C@@H](C1)N2Cc1ccccc1` yielded a pKa (basic group) of 8.73. In turn, `CN(C)CC#N` displayed a pKa (basic group) of 4.5. The same measure, in the same setting: the value for `C#CC(CC)(CC)N(C)C(C)C` was 8.8.

`CN1[C@@H]2CC[C@H]1[C@H](C(=O)[O-])[C@@H](O)C2`: under “basic group”, the pKa is 9.7. The same measure, in the same setting: the value for `Cc1cc(-c2[nH]cc[nH+]2)n[nH]1` was 1.5; that for `C=CCC(C)(O)CN(CC)CC` (stereo unspecified) was 9.71. In the case of `CC=C=CC(=O)CC(Cc1ccccc1)C(=O)[O-]` (stereo unspecified), the pKa (acidic group) turned out to be 13.9.

`CC(=O)n1ccnc1C` showed a pKa (basic group) of 5.03.

As for `Cc1ccc(N2CCCC2)cc1`, where the note is “basic group”, the pKa worked out at 4.69. On the same count and under the same terms, to `[O-]c1ncc2ccccc2n1` belongs 10.7; to `Nc1c(C(=O)[O-])ncn1[C@H]1O[C@@H](CO)[C@H](O)[C@@H]1O`, 5.9; to `NCCCNCCO`, 10.3. On the same count and under the same terms, to `N=C(N)Nc1nc(N)nc(N)n1` belongs 9.4; to `CCNCC[NH2+]CC`, 7.7.

On to `CN(C)/C=N/c1ccccc1Br`, for which the pKa (basic group) amounted to 6.71.

Turning to `Cc1cc(C)c(C(C)C)cc1O`, the pKa (acidic group) turned out to be 10.8. In turn, `O=C([O-])c1cccc2cccnc12` yielded a pKa (basic group) of 6.99.

Where the note is “basic group”, `Clc1ccc(CNc2ncnc3[nH]ncc23)cc1` came in with a pKa of 3.96. The compound `O=S(=O)(Nc1nccs1)c1ccc(O)cc1` displayed a pKa (acidic group) of 6.
